According to patent US6057153A, “Stabilized external guide sequences” (Yale University, priority 1997, dated 2000):
Entries after “also recorded” stand apart in the source; their conditions may differ.

Experiments:
[1] = Nuclease resistance studies in 50% human serum; type: in vitro ADME; details: 37° C., 24 h
Procedure: Nuclease resistance studies--100 μl of EGS oligonucleotides (5 μM), containing a trace of 5'-end-labeled oligomers, were incubated at 37° C. for different time periods (0-24 h) with 50% human serum (Sigma, S-7023). 20 μl aliquots were diluted to 100 μl with RNase-free water, phenol/chlorform extracted, and ethanol precipitated. The residue was resuspended in 10 μl of TE and 10 μl of 2× gel loading buffer containing 98% formamide, 10 mM1 EDTA and 0.1% bromophenol blue. The mixture was heated to 85° C. for 1 min, quickly cooled on ice and frozen at -20° C. prior to electrophoresis on 15% polyacrylamide/8 M urea gels. Gels were subsequently scanned on a Molecular Dynamics PHOSPHORIMAGER™, and the stability profile for each, oligomer was estimated from the ratio of the remaining intact materials versus all radio-labeled materials (intact oligomers plus degradation products). Stability studies of non radio-labeled EGS oligomers using capillary gel electrophoresis were also carried out according to the method of Leeds et al. (15).

Substrate RNA (SUB-156) = test: RNase P-mediated cleavage assay, single turnover conditions; type: biochemical, hepatitis B virus (HBV); details: 200 nM EGS, 20 nM substrate, saturating RNase P, 60 min
Procedure: RNase P-mediated cleavage assay--Human RNase P was purified from HeLa cells according to the published procedures (14). Substrate RNA (SUB-156, FIG. 24) was 5'-end labeled using T4 polynucleotide kinase and [γ-^32P]ATP. The labeling mixture was then heated to 85° C. for 1 min, diluted with RNase-free water, and purified by a MICROSPIN™ G-25 column (Pharmacia) according to the manufacturer's instructions. Cleavage reactions were conducted in a reaction buffer containing 50 mM Tris-HCl (pH 7.4), 25 mM KCl, 10 mM MgCl2 and 0.1 mM EDTA. EGS oligomers and ^32 p-5'-end-labeled RNA substrate were heated in the reaction buffer without MgCl2 to 85° C. for 1 min and then slowly cooled to room temperature. The cleavage reaction was initiated by adding 2 μl of 100 mM MgCl2 and 3 μl of RNase P (enzyme activity for this preparation: cleavage of 0.035 pmol of tRNA^Tyr precursor min^-1 μl^-1). The final reaction volume was 20 μl and the reaction was incubated at 37° C. for 60 min. […] For each sample, cleavage reactions were performed in duplicates and the average values were used. To ensure reproducibility, cleavage assays for each EGS were also repeated in two separate experiments. The all-RNA EGS-159 was used as the reference sample and its cleavage values were counted as 100%. Cleavage percentages of all other EGSs were normalized against EGS-159 (Rel. Cleavage %) except in FIG. 30 and FIG. 31 where absolute cleavage percentages (Abs. Cleavage %) were plotted.
For EGS-single turnover conditions, the final concentrations were 200 nM for EGS and 20(nM for the RNA substrate. For EGS-multiple turnover conditions, the final concentrations were 200 nM for the RNA substrate and 40 nM for EGS. When determination of the time-course was required, the reaction volume was increased to 40 μl. Aliquots of 5-8 μl were removed from the reaction mixture at different time points (e.g. 1, 5, 15, 30 and 60 min), quenched in formamide loading buffer, and loaded onto 15% polyacrylamide/8 M urea gels. Quantitation of the cleavage product and the remaining RNA substrate was achieved using a Molecular Dynamics PHOSPHORIMAGER™.
General considerations--To select lead nuclease-resistant oligonucleotide prototypes as external guide sequences among many possible modifications, a reliable yet rapid in vitro cleavage assay for routine screening was used. Human RNase P, a ribonucleoprotein, is composed of a 340-nt H1 RNA component and one or more proteins (for recent review, see Ref. 16). A 3-step screening strategy was devised: 1) All analogues once synthesized were tested by a fast qualitative cleavage assay under single turnover conditions with 10-fold excess of EGS over target RNA substrate for 60 min. […] This was the best cleavage condition used in this study. Any analogue with a reasonable activity (e.g. more than 5% cleavage) would not be missed, under these circumstances, due to the high detection sensitivity provided by PHOSPHORIMAGER™. 2) Promising analogues were then assayed for stability in 50% human serum.

[2] = Fetal Calf Serum Stability Assay; type: in vitro ADME; details: 10% heat-inactivated fetal calf serum, EGS about 5 μM
Procedure: Fetal Calf Serum Stability Assay: The nuclease resistance of modified EGS molecules were tested in a Fetal Calf Serum (FCS) Assay. It was reported by Shaw et al., Nucleic Acids Res. 19:747-750 (1991), that 10% FCS, when heated inactivated, mimics rather closely the human serum. The assay conditions were very similar to that previously described by Hoke et al., Nucleic Acids Res. 19:5743-5748 (1991). Briefly, an EGS analog to be tested was 5'-end labeled with T4 polynucleotide kinase and [γ-^35 S] ATP (this procedure can generate radiolabeled oligonucleotides which are resistant against dephosphorylation). The labeled EGS was then purified by phenol/chloroform extraction, followed by a Sephadex G-25 spin-column filtration. The purified EGS was mixed with cold EGS and 10% heat-inactivated fetal calf serum (FCS) so that the final concentration of EGS was about 5 μM. EGS analogues were treated over a period of 24 hours. Aliquots were withdrawn from the reaction mixture at different time points, mixed with 2× loading dye, heat inactivated at 90° C. for 3 min, then stored at -20° C. The results were analyzed on 12% polyacrylamide/7 M urea gels.

2.1 kb HBV RNA = test: RNAse P cleavage of large target RNA; type: biochemical; details: 250 nM EGS, 30 minutes at 37° C.
Procedure: To test cleavage with a longer target RNA molecules, different reaction conditions were used. Reactions in a total volume of 10 μl contained 40 mM Tris-HCl (pH 7.4), 10 mM MgCl2, 1 mM spermidine 10 mM dithiothreitol, 0.05 μg/μl nuclease-free bovine serum albumin, 0.01% (v/v) Triton-X100™, 0.8 Units/μl RNASIN, 0.2 mM ATP, 0.2 mM GTP, 0.2 mM UTP, 0.2 mM CTP, 0.1 μCi/μl [a^32 P] CTP, 2 mM m^7 G(5')pppG, 0.06 μg/μl yeast RNA, 25 mM KCl, 3 Units T7 RNA polymerase, 250 nM EGS, 1 μl of human RNAse P and 3 ng/μl linearized plasmid. Reactions were initiated by the addition of linearized plasmid and incubated for 30 minutes at 37° C. Reactions were terminated by the addition of 10 μl of 80% formaemide, 10 mM EDTA, 0.1% bromphenol blue. After heating for 2 minutes at 90° C., samples were electrophoresed for 2 hours at 48 watts on a 5% denaturing polyacrylamide gel. After vacuum drying for 1 hour at 60° C., the gel was analyzed by phosphoimaging.
Cleavage of Large Target RNA: Plasmid pAYW2.1, containing the sequence that encodes the 2.1 kb RNA of the AYW strain of HBV, was linearized by digestion with Not I, and then transcribed by T7 RNA polymerase in the presence of [α^32 P]CTP. Labeled transcripts were incubated for 30 minutes at 37° C. with RNase P in the presence of various EGS molecules. Reaction products were subjected to denaturing polyacrylamide gel electrophoresis, and analyzed by phosphoimaging. EGS-mediated cleavage at the targeted site of the 2.1 kb transcript produces cleavage products that are approximately 1.7 and 0.4 kb in length.

[3] = system: short substrate (SEQ ID NO. 1) derived from the full-length pre-genomic HBV RNA; test: RNAse P cleavage assay, short substrate; type: biochemical; details: for efficiency of RNase P-mediated target cleavage relative to the wild-type EGS: short substrate, EGS 200 nM, 37° C., 1 hour
Procedure: RNAse P Cleavage Assays: Cleavage reactions were carried out generally according to the procedure described by Yuan et al., Proc. Natl. Acad. Sci., USA, 89:8006-8010, (1992), which is hereby incorporated by reference. Briefly, short substrate reactions were made up to a total volume of 31μ in 50 mM Tris-HCl pH 7.4, 10 mM MgCl2, 25 mM KCl, 0.1 mM EDTA, […] at 37° C. for 1 hour. After incubation, the reaction solution was mixed with loading buffer (98% formamide, 10 mM EDTA, 0.025% bromophenol blue). The cleaved substrate was separated from the uncleaved by electrophoresis on a 15% acrylamide gel containing 7 M urea. The bands were quantified on a Molecular Dynamics PHOSPHORIMAGER™.
The bands corresponding to the precursor RNA substrate and the resulting two cleavage products were counted from the dried gel using a BETASCOPE™ gel analyzer (Betagen).
RNAse P was purified by DEAE SEPHAROSE™ chromatography and glycerol density gradient centrifugation essentially as described by Bartkiewicz et al., Genes Dev. 3:488-499 (1989), which is hereby incorporated by reference.
The percentage of precursor RNA substrate remaining in either assay was plotted as function of the EGS concentration and the catalytic efficiency expressed as kcat /Km (where kcat is the rate constant of cleavage and Km is the Michaelis constant), the second order rate constant for the reaction of free EGS and substrate. Following the methods of Heidenreich and Eckstein (J. Biol. Chem., 267:1904-1909 (1992), the efficiency of the cleavage reaction, kcat /Km), was determined using the formula
The EGS constructs described in Example 2 were assayed using the RNAse P cleavage assays described in Example 1 to determine the efficiency of the cleavage reaction. FIG. 1 depicts the model system using a short substrate which was used to evaluate the ability of modified EGS molecules in inducing RNase P-mediated target cleavage. The sequence of the short substrate (SEQ ID NO. 1) was derived from the full-length pre-genomic HBV RNA.

[4] = system: EGS/target RNA complex (SUB-156) with human RNase P; test: Measurements of kcat and A50; type: biochemical, hepatitis B virus (HBV)
Procedure: Measurements of kcat, Km and A50 --Measurements of these kinetic parameters were carried out using conditions similar to those described above (e.g. identical cleavage buffers). For kcat measurements, aliquots were taken every 30-60 s for the first 5 min. The logarithm of the percentage of cleavage (Abs. Cleavage %) was plotted against time, and the data points were fitted using a linear least-squaresanalysis. The slope represents kcat values. For Km measurements,a fixed amount of RNase P (0.6 μl) was used, while substrate concentrations (i.e. EGS/target RNA complex) varied from 25 to 500 nM. Several EGS/target RNA ratios were assayed including 1:1, 5:1 and 10:1. Attempts were made to obtain Km and Vmax values from linear Lineweaver-Burk or Eadie-Hofstee plots. The scattered values could not be fit as a hyperbolic function. For A50 measurements, the ratio between EGS and target RNA was kept as 10:1. Various amounts of RNase P (0.3 to 3 μl) were used to conduct a 60-min cleavage reaction. Percentage of cleavage was plotted against [RNase P] in μl, and 50% cleavage values (A50) were determined using a non-linear, least-squares routine (Kaleidagraph, Synergy Software). The amount of RNase P required to reach A50 was then converted to enzyme unit. 1 unit of RNase P represents the amount of RNase P that catalyzes the conversion of 1 pmol of tRNA^Tyr precursor to cleavage products per minute per μl of the enzyme preparation. 1 unit of RNase P preparation used for this study equals 28.57 μl.

| Substance | RNase P-mediated cleavage activity compared to the all-RNA control (Substrate RNA (SUB-156)) | half-life in 10% FCS [2] | efficiency of RNase P-mediated target cleavage relative to the wild-type EGS [3] | other results |
| --- | --- | --- | --- | --- |
| EGS-399: U54 replaced with riboadenosine, SEQ ID NO. 45 (AGAUGAUAGAAGGAUAGAAUCCUUCACGCCGC; guide RNA; Riboadenosine at tRNA position 54, rest of chemistry not given here) | promising | – | – | fraction degraded in 50% human serum [1]: 16% |
| INNO-155: SEQ ID NO. 3, 2'-O-methyl, phosphorothioate T loop, 2'-O-methyl phosphorothioate end caps (CGAUGAAGGUUCGAAUCCUUCCCAGGAC; 2'-O-methyl, phosphorothioate T loop and end caps, positions not given here) | – | more than 18 hours | capable of inducing an efficient target cleavage | RNase P-mediated cleavage of 2.1 kb HBV RNA (2.1 kb HBV RNA): capable of inducing RNase P-mediated cleavage; also recorded: partially cleaved |
| INNO-140: all-RNA EGS without variable loop, SEQ ID NO. 3, 28 nucleotides (CGAUGAAGGUUCGAAUCCUUCCCAGGAC; guide RNA; RNA, backbone not given here) | – | less than 10 minutes | – | – |
| INNO-139: SEQ ID NO. 3, variable loop deleted, 2'-O-methyl recognition sequences and T stem (CGAUGAAGGUUCGAAUCCUUCCCAGGAC; 2'-O-methyl modifications, chemistry not fully specified) | – | 2 h | much of the lost activity can be restored | turnover of EGS-mediated cleavage ([3]; EGS 20 nM, target 400 nM (20 fold excess)): do not significantly affects turnover |
| EGS-398: lead prototype, U54 replaced with 2'-deoxyuridine, SEQ ID NO. 44 (guide AGAUGAUAGAAGGUUAGAAUCCUUCACGCCGC; 2'-deoxyuridine at tRNA position 54, rest of chemistry not given here) | promising | – | – | degradation in 50% human serum [1]: no degradation products were detected; A50 (amount of RNase P required to achieve 50% cleavage) ([4]; 60 min, EGS in 10-fold excess relative to the RNA target): 0.061 unit; kcat ([4]; single turnover, first 5 min): indistinguishable from that of the all-RNA control |
